# Patent publication US10517889B2, “Modulators of SMAD7 expression” (Ionis Pharmaceuticals, Inc., priority 2017, dated 2019)
# Strand notation (5' to 3'): a small letter for the sugar, then the base; units joined by * are phosphorothioate-linked, units joined directly phosphodiester-linked; [ ] holds rarer units or linkages, { } end groups; capitals alone tell only the bases. e = 2'-O-(2-methoxyethyl) (MOE); [5mC] = 5-methylcytosine; d = 2'-deoxy (DNA)
# Tested on: human SMAD7 mRNA
# Assay: Antisense inhibition of human SMAD7 mRNA expression in Hep3B cells by 5-10-5 MOE gapmers, single concentration, electroporation, RT-PCR (Example 1, Study 1 and 2)
# Type: cell-based
# Settings: Study 2, electroporation with 15,000 nM antisense oligonucleotide, 5-10-5 MOE gapmers targeting SEQ ID NO: 1 and 2
# Summary of the method: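 Hep3B cells (20,000/well) electroporated with 5-10-5 MOE gapmer at 5,000 nM or 15,000 nM for approximately 24 h. SMAD7 mRNA quantified by real-time PCR with primer probe set RTS5062 and normalized to RIBOGREEN total RNA. Values are percent inhibition relative to untreated controls.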
row,Substance,% inhibition of SMAD7 mRNA expression
1,771580 (antisense eA*eG*e[5mC]*eT*eT*dG*d[5mC]*d[5mC]*d[5mC]*dA*dG*dG*dT*dA*d[5mC]*eT*eG*e[5mC]*e[5mC]*eT) [compound 771580],25%
2,771582 (antisense e[5mC]*eT*eG*eG*e[5mC]*dA*dG*d[5mC]*dT*dG*d[5mC]*dT*dG*dG*dG*eA*e[5mC]*e[5mC]*e[5mC]*e[5mC]) [compound 771582],37%
3,771588 (antisense eA*eG*eG*e[5mC]*e[5mC]*d[5mC]*dG*dT*dG*dT*d[5mC]*d[5mC]*dT*dT*dG*eA*eT*eG*eA*eG) [compound 771588],13%
4,771590 (antisense eG*e[5mC]*e[5mC]*eT*eG*dT*dG*dG*dA*d[5mC]*dA*dG*dG*d[5mC]*d[5mC]*e[5mC]*eG*eT*eG*eT) [compound 771590],14%
5,771591 (antisense e[5mC]*eA*eG*eA*eA*dG*d[5mC]*d[5mC]*dT*dG*dT*dG*dG*dA*d[5mC]*eA*eG*eG*e[5mC]*e[5mC]) [compound 771591],50%
6,771596 (antisense eG*eA*e[5mC]*eA*eA*dG*dG*dA*dT*dG*dA*dA*dA*dA*dT*eA*eA*eT*eT*eG) [compound 771596],0%
7,771598 (antisense eG*eA*eA*eG*eG*dG*dA*dA*dT*dA*dA*dG*dA*d[5mC]*dA*eA*eG*eG*eA*eT) [compound 771598],34%
8,771599 (antisense eG*e[5mC]*eA*eG*eG*dA*dA*dG*dG*dG*dA*dA*dT*dA*dA*eG*eA*e[5mC]*eA*eA) [compound 771599],39%
9,771604 (antisense e[5mC]*e[5mC]*eT*eT*eG*dG*dG*dA*dA*dG*d[5mC]*d[5mC]*d[5mC]*dA*dT*e[5mC]*eT*e[5mC]*eA*eG) [compound 771604],12%
10,771606 (antisense eG*eG*eG*e[5mC]*eT*dG*d[5mC]*d[5mC]*d[5mC]*d[5mC]*dG*dG*d[5mC]*dA*dG*e[5mC]*e[5mC]*e[5mC]*eT*eT) [compound 771606],0%
11,771607 (antisense eG*eG*eT*eG*eA*dG*d[5mC]*dA*dA*dT*dA*d[5mC]*dT*dG*dT*eG*eA*eG*eG*eG) [compound 771607],34%
12,771612 (antisense eT*e[5mC]*e[5mC]*eG*eG*dG*dA*dA*dA*dA*dA*d[5mC]*d[5mC]*dT*dG*eA*eT*eG*eT*e[5mC]) [compound 771612],3%
13,771614 (antisense eG*eT*eT*eT*eT*d[5mC]*dT*dA*dA*dG*dT*d[5mC]*d[5mC]*dG*dG*eG*eA*eA*eA*eA) [compound 771614],25%
14,771615 (antisense eA*eG*e[5mC]*eT*eG*dG*dT*dT*dT*dT*d[5mC]*dT*dA*dA*dG*eT*e[5mC]*e[5mC]*eG*eG) [compound 771615],45%
15,771620 (antisense e[5mC]*eA*e[5mC]*eA*e[5mC]*dA*dG*dG*dA*dT*dG*dG*dG*dA*dG*e[5mC]*eA*eG*eG*e[5mC]) [compound 771620],12%
16,771622 (antisense eA*eA*e[5mC]*eA*e[5mC]*dA*d[5mC]*dA*dG*dG*dA*dT*dG*dG*dG*eA*eG*e[5mC]*eA*eG) [compound 771622],34%
17,771623 (antisense eT*eA*eA*e[5mC]*eA*d[5mC]*dA*d[5mC]*dA*dG*dG*dA*dT*dG*dG*eG*eA*eG*e[5mC]*eA) [compound 771623],51%
18,771628 (antisense e[5mC]*e[5mC]*eA*eG*eG*dG*dA*d[5mC]*dA*dT*d[5mC]*d[5mC]*d[5mC]*d[5mC]*dG*e[5mC]*eT*eT*eG*e[5mC]) [compound 771628],12%
19,771630 (antisense eT*eG*e[5mC]*eT*eA*dA*dG*d[5mC]*dA*dT*dG*dT*d[5mC]*d[5mC]*d[5mC]*eT*e[5mC]*e[5mC]*e[5mC]*eA) [compound 771630],37%
20,771631 (antisense eG*eG*eG*eA*e[5mC]*dT*dG*d[5mC]*dT*dA*dA*dG*d[5mC]*dA*dT*eG*eT*e[5mC]*e[5mC]*e[5mC]) [compound 771631],0%

# Same assay, conditions: electroporation with 15,000 nM antisense oligonucleotide (Study 2), 5-10-5 MOE gapmers targeting SEQ ID NO: 1 and 2
Substance,% Inhibition of SMAD7 mRNA,% inhibition of SMAD7 mRNA expression
771584 (antisense eA*eG*e[5mC]*e[5mC]*eG*dT*dG*d[5mC]*dT*d[5mC]*d[5mC]*dT*dG*dG*d[5mC]*eA*eG*e[5mC]*eT*eG) [compound 771584],26%,
771592 (antisense e[5mC]*eT*eG*e[5mC]*eT*d[5mC]*dA*dG*dA*dA*dG*d[5mC]*d[5mC]*dT*dG*eT*eG*eG*eA*e[5mC]) [compound 771592],16%,
771600 (antisense eT*eG*eG*e[5mC]*e[5mC]*dA*dA*dA*dA*dA*dA*dG*dA*dA*dA*eG*eA*e[5mC]*eG*e[5mC]) [compound 771600],11%,
771602 (antisense eG*eG*eA*eG*eA*dT*d[5mC]*d[5mC]*dA*dG*dG*dA*dG*d[5mC]*dA*eG*eA*eT*eG*eG) [compound 771602],,39%
771608 (antisense e[5mC]*eT*eG*eG*eG*dT*dG*dA*dG*d[5mC]*dA*dA*dT*dA*d[5mC]*eT*eG*eT*eG*eA) [compound 771608],45%,34%
771609 (antisense eA*eT*eG*eT*e[5mC]*dA*d[5mC]*d[5mC]*dA*dG*dG*dG*d[5mC]*dA*dG*eG*e[5mC]*eA*eG*eG) [compound 771609],,47%
771616 (antisense eT*eG*e[5mC]*eT*eG*dA*dG*d[5mC]*dT*dG*dG*dT*dT*dT*dT*e[5mC]*eT*eA*eA*eG) [compound 771616],33%,0%
771617 (antisense e[5mC]*eA*eG*eT*eG*d[5mC]*dT*dG*dA*dG*d[5mC]*dT*dG*dG*dT*eT*eT*eT*e[5mC]*eT) [compound 771617],,10%
771618 (antisense e[5mC]*eA*eG*eG*eA*dT*dG*dG*dG*dA*dG*d[5mC]*dA*dG*dG*e[5mC]*eA*eG*eT*eG) [compound 771618],,30%
771624 (antisense eT*eT*eA*eA*e[5mC]*dA*d[5mC]*dA*d[5mC]*dA*dG*dG*dA*dT*dG*eG*eG*eA*eG*e[5mC]) [compound 771624],27%,0%
771625 (antisense eG*e[5mC]*eT*eT*eA*dA*d[5mC]*dA*d[5mC]*dA*d[5mC]*dA*dG*dG*dA*eT*eG*eG*eG*eA) [compound 771625],,48%
771626 (antisense eG*e[5mC]*eA*eG*eA*dG*d[5mC]*dT*dT*dA*dA*d[5mC]*dA*d[5mC]*dA*e[5mC]*eA*eG*eG*eA) [compound 771626],,35%
771633 (antisense eG*eA*e[5mC]*e[5mC]*eA*dA*dA*dT*d[5mC]*d[5mC]*dT*dT*d[5mC]*dT*dT*eG*eG*eA*eG*eG) [compound 771633],,40%

# Same assay, conditions: electroporation, 15,000 nM antisense oligonucleotide (Study 2), 5-10-5 MOE gapmers targeting SEQ ID NO: 1 and 2
row,Substance,% inhibition of SMAD7 mRNA expression
1,771584 (antisense eA*eG*e[5mC]*e[5mC]*eG*dT*dG*d[5mC]*dT*d[5mC]*d[5mC]*dT*dG*dG*d[5mC]*eA*eG*e[5mC]*eT*eG) [compound 771584],7%
2,771585 (antisense eG*eA*eG*e[5mC]*e[5mC]*dG*dT*dG*d[5mC]*dT*d[5mC]*d[5mC]*dT*dG*dG*e[5mC]*eA*eG*e[5mC]*eT) [compound 771585],49%
3,771586 (antisense e[5mC]*e[5mC]*eT*eT*eG*dA*dT*dG*dA*dG*dG*dG*dA*dG*dA*eG*eG*eA*eG*eG) [compound 771586],48%
4,771592 (antisense e[5mC]*eT*eG*e[5mC]*eT*d[5mC]*dA*dG*dA*dA*dG*d[5mC]*d[5mC]*dT*dG*eT*eG*eG*eA*e[5mC]) [compound 771592],0%
5,771593 (antisense e[5mC]*eG*e[5mC]*eT*eG*d[5mC]*dT*d[5mC]*dA*dG*dA*dA*dG*d[5mC]*d[5mC]*eT*eG*eT*eG*eG) [compound 771593],41%
6,771594 (antisense eG*eG*e[5mC]*e[5mC]*eA*d[5mC]*dT*dA*dG*d[5mC]*dA*dG*dG*d[5mC]*dT*e[5mC]*eG*e[5mC]*eT*eG) [compound 771594],37%
7,771600 (antisense eT*eG*eG*e[5mC]*e[5mC]*dA*dA*dA*dA*dA*dA*dG*dA*dA*dA*eG*eA*e[5mC]*eG*e[5mC]) [compound 771600],0%
8,771601 (antisense eG*eA*eT*eG*eG*d[5mC]*d[5mC]*dA*dA*dA*dA*dA*dA*dG*dA*eA*eA*eG*eA*e[5mC]) [compound 771601],13%

# Same assay, conditions: electroporation, 15,000 nM, approximately 24 hours, relative to untreated control cells, gapmers targeting SEQ ID NO: 1 and 2
row,Substance,% inhibition of SMAD7 mRNA expression
1,771589 (antisense eT*eG*eG*eA*e[5mC]*dA*dG*dG*d[5mC]*d[5mC]*d[5mC]*dG*dT*dG*dT*e[5mC]*e[5mC]*eT*eT*eG) [compound 771589],51%
2,771597 (antisense eG*eA*eA*eT*eA*dA*dG*dA*d[5mC]*dA*dA*dG*dG*dA*dT*eG*eA*eA*eA*eA) [compound 771597],0%
3,771605 (antisense eG*eG*e[5mC]*eT*eG*d[5mC]*d[5mC]*d[5mC]*d[5mC]*dG*dG*d[5mC]*dA*dG*d[5mC]*e[5mC]*e[5mC]*eT*eT*eG) [compound 771605],26%
4,771613 (antisense e[5mC]*eT*eA*eA*eG*dT*d[5mC]*d[5mC]*dG*dG*dG*dA*dA*dA*dA*eA*e[5mC]*e[5mC]*eT*eG) [compound 771613],21%
5,771621 (antisense eA*e[5mC]*eA*e[5mC]*eA*d[5mC]*dA*dG*dG*dA*dT*dG*dG*dG*dA*eG*e[5mC]*eA*eG*eG) [compound 771621],36%
6,771629 (antisense eA*eG*e[5mC]*eA*eT*dG*dT*d[5mC]*d[5mC]*d[5mC]*dT*d[5mC]*d[5mC]*d[5mC]*dA*eG*eG*eG*eA*e[5mC]) [compound 771629],25%
